The record followed here is article PMC3579935, “High-Throughput Screening for Growth Inhibitors Using a Yeast Model of Familial Paraganglioma” (PLoS ONE, 2013).

Like-named read-outs stand apart in the source and are kept apart here.

Usually IC50 stands for the concentration at which inhibition is half-maximal.

This assay addresses T1, yeast alcohol dehydrogenase (Saccharomyces cerevisiae, UniProt P00330).
T1 construct: gene ADH1
T1 sequence (P00330 2-348): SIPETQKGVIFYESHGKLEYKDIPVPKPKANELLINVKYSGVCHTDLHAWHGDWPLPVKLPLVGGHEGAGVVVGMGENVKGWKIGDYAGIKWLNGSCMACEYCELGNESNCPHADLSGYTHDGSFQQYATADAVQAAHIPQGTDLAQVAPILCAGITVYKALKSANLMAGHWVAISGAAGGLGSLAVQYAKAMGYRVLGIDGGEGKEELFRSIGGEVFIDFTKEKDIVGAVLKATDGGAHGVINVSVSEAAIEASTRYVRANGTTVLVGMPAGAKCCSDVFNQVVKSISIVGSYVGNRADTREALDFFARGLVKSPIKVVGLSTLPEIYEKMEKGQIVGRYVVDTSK
Briefly: NADH absorbance ([…] nm) enzyme assay of acetaldehyde reduction, 8-point dose response. It is filed as biochemical.

On to `C#CCOc1c(Cl)cc(/C=C/[N+](=O)[O-])cc1OC` [compound 7312219, 7312219], for which the IC50 came out at 3.8 µM. With `CC(=O)c1ccc(O)c2c1C1C=CCC1C(c1ccc(Cl)cc1)N2` (stereo not shown) [compound 7172827, 7172827], the half-maximal inhibitory concentration (IC50) (read-out: IC50 yADH ^c) came out at 25.6 µM. With `COc1cc(C)c(/C=C/[N+](=O)[O-])cc1C(C)C` [compound 7279172, 7279172], half-maximal inhibition (IC50) was put at 12.7 µM. Same read-out and setting: the value for `COc1ccc(/C=C/[N+](=O)[O-])cc1Br` [compound 7241889, 7241889] was 1.3 µM.
